Consider four molecules from patent US9977014B2, “Nanoparticle sensor for nucleic acid-protein interaction” (Agency for Science, Technology and Research, priority 2013, dated 2018).

Data set [1] concerns the target T1, FoxA1 (Homo sapiens, UniProt P55317).
T1 construct: Full-length FoxA1 cDNA was cloned into a pHISMBP (Addgene) expression vector; made in house; host or cells: E. coli BL21 (DE3)
T1 sequence (P55317 1-472): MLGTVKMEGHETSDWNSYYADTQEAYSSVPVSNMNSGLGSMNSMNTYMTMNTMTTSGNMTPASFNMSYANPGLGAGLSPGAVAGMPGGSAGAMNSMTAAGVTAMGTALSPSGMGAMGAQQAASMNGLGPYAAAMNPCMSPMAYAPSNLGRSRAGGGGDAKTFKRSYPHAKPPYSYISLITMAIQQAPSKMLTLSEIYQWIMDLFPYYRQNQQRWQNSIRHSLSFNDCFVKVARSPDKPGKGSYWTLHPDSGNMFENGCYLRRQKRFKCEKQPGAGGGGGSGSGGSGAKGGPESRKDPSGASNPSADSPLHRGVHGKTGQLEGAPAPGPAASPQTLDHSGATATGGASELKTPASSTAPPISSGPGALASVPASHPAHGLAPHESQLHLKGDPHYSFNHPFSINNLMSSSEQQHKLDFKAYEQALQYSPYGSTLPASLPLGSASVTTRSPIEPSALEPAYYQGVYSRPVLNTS
In words: Electrophoretic Mobility Shift Assay (EMSA), DNA probe binding. Conditions: read-out: Binding constant (Kd). The text has this:
(§1) Electrophoretic Mobility Shift Assay (EMSA): Invitrogen Corporation, Panomics Inc., Pierce Biotechnology, Viagene Inc.
For orientation: Mobility shift assays separate free from complexed probe on a gel.

Another data set concerns the target T2, His-MBP-FoxA1 (Homo sapiens, UniProt P55317).
T2 construct: Full-length FoxA1 cDNA was cloned into a pHISMBP (Addgene) expression vector; made in house; host or cells: E. coli BL21 (DE3)
T2 sequence (P55317 1-472): T1 sequence (P55317 1-472)
In words: Fluorescence anisotropy (FA) with FAM-labelled DNA probes. The following applies: read-out: Binding constant (Kd). As for the experimental part:
Fluorescence anisotropy (FA): To determine the binding activity of His-MBP-FoxA1 to various FoxA1 probes containing its cognate DNA element, fluorescence anisotropy (FA) assay was utilized. The wildtype and two mutant probes for FoxA1, labelled with carboxyfluorescein (FAM), are as described earlier in Table 1. The assays were carried out in 384-well microplates (Corning) in which varying concentrations of protein were incubated with 2 nM of the labelled probe in PBS buffer for 20 min at room temperature (RT). To examine the effects of small molecule inhibitors on FoxA1 DNA binding, 125 nM of protein was pre-incubated with 5% DMSO, or 1 mM unlabelled probe, or 1.9 mM inhibitor for 1 h, at room temperature (RT), before the addition of 2 nM of the FAM labelled probe for another hour incubation.
Fluorescence anisotropy was measured using Synergy 2 Multi-Mode Microplate Reader with a 485/20-excitation and a 528/20-emission filter. The equilibrium dissociation constants for each wild-type probe were subsequently calculated by fitting the FoxA1 concentration vs. fluorescence polarization plot using Langmuir isotherm in Origin Pro 8 software. Standard error values (precision of the fitted values) were also obtained from the software after fitting.
On the technique in general: In fluorescence polarisation assays a small probe gives low polarisation when free and higher when bound to something large.

For data set [2], the target named is T1, FoxA1. Briefly: CP/dsDNA-AuNP hybrid sensor protein titration. Conditions: read-out: Binding constant (Kd). Here is the method: Qualitatively, the affinity of FOxA1 to different DNA probes can be identified by the degree of change in fluorescence intensity. For measuring the binding affinity constant Kd, protein titration was conducted using protein:DNA molar ratios of 0:1 to 5:1. That is, in a 50 nM solution of dsDNA-AuNPs, protein was added to achieve a concentration of 0-250 nM. The respective fluorescence intensity of the subsequent CP emission was recorded and compared with a control reaction containing no protein (FIG. 12).

Data set [3] addresses T1, FoxA1. Briefly: Ligand inhibition of DNA-protein interaction, CP/Probe2-AuNP hybrid sensor. It is filed as binding. Conditions: protein:ligand 1:8. Here is the method: For screening of ligand inhibition of the DNA-protein interaction (FIG. 4(B)), the ligand and protein were incubated at a molar ratio of 8:1 for 10-20 min at RT prior to the addition of dsDNA-AuNP in step (1) above. Steps (1), (2) and (3) were then repeated.
The proteins and each ligand were mixed at a ratio of 1:8 for 10 min. The protein-ligand pre-incubation solution was then mixed with dsDNA-AuNP and further incubated for 20 mins. The CP was then added as the last step. Positive and negative controls were also prepared, where the positive control was dsDNA-AuNP incubated with protein without ligand, and the negative control was dsDNA-AuNPs incubated without any protein added.

The next data set has as its system FoxA1 and AP2γ. Briefly: Ligand selectivity (positive = inhibitor, negative) listed in Table 3. It is filed as binding. Also on record: key: Positive: A positive ligand refers to a ligand that can inhibit protein binding to DNA; Negative: a negative ligand is a ligand that does not interrupt the binding. The text has this:
9 small ligands (as described in Table 3) were used to disrupt the DNA-protein interaction. […] It must be clearly understood that a particular ligand can bind strongly (with high affinity) to a certain protein but not inhibit the subsequent protein binding to DNA and vice versa. The main objective of this assay is to screen ligands that can interrupt protein binding to DNA regardless of their affinity to the protein. All of the ligands were kept as solutions in DMSO. Before using, they were thawed in a room temperature water bath.

Data set [4] concerns the target T3, AP-2γ (Homo sapiens, UniProt Q92754). In words: Electrophoretic Mobility Shift Assay (EMSA), DNA probe binding. The arrangement: made in house. The following applies: read-out: Binding constant (Kd).
Excerpt: as §1

Data set [5] concerns the target T3, AP-2γ. In words: Fluorescence anisotropy (FA) with labelled DNA probes. Also on record: made in house. The following applies: read-out: Binding constant (Kd).
Data set [6] deals with T3, AP-2γ. In words: CP/dsDNA-AuNP hybrid sensor protein titration.
Procedure: The protein-DNA binding assay was conducted in three main steps (FIG. 4(A)): • 1) 50 nM dsDNA-AuNPs (referring to dsDNA concentration on the surface of AuNPs) was incubated with protein for 20-40 min at room temperature (RT).
Based on the relationship between protein concentration and fluorescence intensity, the binding constant, Kd, can be calculated using the equation: (F0−F)/(F−Fsat)=([protein]/Kd)^n. […] The slope, n, is the binding stoichiometry of protein to DNA.
The assay was also used to study a second transcription factor, AP-2γ (pI˜7.8), to test the applicability of the method. wtR3 and mtR3 were used as the probe DNA sequences (Table 2). […] From the relative decrease and increase in fluorescent intensity of CP with increasing concentration of AP-2γ, the binding affinity Kd and n were determined.
The mark [7] stands for this setting: CP/dsDNA-AuNPs hybrid sensor (ACP-430).
[8] abbreviates: CP/dsDNA-AuNPs hybrid sensor (ACP-560).
[9] abbreviates: CP/dsDNA-AuNPs hybrid sensor (CCP-410).

T3 sequence (Q92754 whole entry, species assumed): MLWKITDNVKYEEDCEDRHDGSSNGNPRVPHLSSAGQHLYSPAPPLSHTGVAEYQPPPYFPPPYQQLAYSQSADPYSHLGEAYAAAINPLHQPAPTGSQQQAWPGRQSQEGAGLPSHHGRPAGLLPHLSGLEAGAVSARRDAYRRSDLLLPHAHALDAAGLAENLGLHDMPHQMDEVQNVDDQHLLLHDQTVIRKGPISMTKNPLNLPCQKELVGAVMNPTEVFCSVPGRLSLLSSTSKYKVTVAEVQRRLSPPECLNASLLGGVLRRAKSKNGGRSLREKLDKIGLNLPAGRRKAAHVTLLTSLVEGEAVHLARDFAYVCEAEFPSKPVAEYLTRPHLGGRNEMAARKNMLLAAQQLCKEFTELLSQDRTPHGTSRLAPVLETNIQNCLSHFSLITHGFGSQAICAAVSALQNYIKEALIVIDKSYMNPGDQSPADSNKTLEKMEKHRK

Regarding “Probe2: Ideal FoxA1 DNA probe 5′-GTACTGTAAATAAAACT-3′ (SEQ ID NO: 3) with complementary strand (antisense AGTTTTATTTACAGTAC; DNA, backbone and methylation of C not given here; sense strand 5'-thiol-labelled, conjugated to gold nanoparticles)”, the Kd with FoxA1 [1] was 0.0478 µM; with His-MBP-FoxA1, 0.016 µM; in the data set with FoxA1 [2] (setting [7]), 0.00447 µM; with FoxA1 [2] (setting [8]) it was 0.00576 µM; with FoxA1 [2] (setting [9]), 0.00502 µM.
Consider `Nc1ccc2nc3ccc(=O)cc-3n(-c3ccccc3)c2c1` [Ligand 4], for which, on FoxA1 [3] (ACP-430/Probe2-AuNP and CCP-410/Probe2-AuNP), the “Ligand effect on FoxA1-DNA binding” value is given as “negligible effect”. In addition, the “Ligand influence on FoxA1-Probe2 binding” value at FoxA1 [3] (ACP-430/Probe2-AuNP) is “retain its binding capability”. Moreover, the “Selectivity for FoxA1 and AP2γ” value in the data set with FoxA1 and AP2γ is listed as “Negative”.
Take “wtR3: GC rich wild-type DNA for AP-2γ, 5′-AAAGTGCCCAGAGCCCATG-3′ (SEQ ID NO: 7) with complementary strand (antisense CATGGGCTCTGGGCACTTT; DNA, backbone and methylation of C not given here; sense strand 5'-thiol-labelled, conjugated to gold nanoparticles)”: the Kd worked out at 0.139 µM in the data set with AP-2γ [4]; 0.0506 µM with AP-2γ [5]; 0.0124 µM with AP-2γ [6] (read-out: Binding constant (Kd), CP/dsDNA-AuNPs hybrid sensor (ACP-430)); 0.0146 µM in the data set with AP-2γ [6] (read-out: Binding constant (Kd), CP/dsDNA-AuNPs hybrid sensor (ACP-560)); 0.013 µM with AP-2γ [6] (read-out: Binding constant (Kd), CP/dsDNA-AuNPs hybrid sensor (CCP-410)).
For the molecule “Probe1: FoxA1 DNA probe 5′-CACTTTGTTTGCAAAGC-3′ (SEQ ID NO: 1) with complementary strand; modified at the centre (antisense GCTTTGCAAACAAAGTG; DNA, backbone and methylation of C not given here; sense strand 5'-thiol-labelled, conjugated to gold nanoparticles)”, the Kd amounted to 0.459 µM with FoxA1 [1]; 0.231 µM with His-MBP-FoxA1; 0.0313 µM with FoxA1 [2] (setting [7]); 0.0329 µM in the data set with FoxA1 [2] (setting [8]); 0.0341 µM with FoxA1 [2] (setting [9]).
